Assay results as given in patent US5204355A, “15-nitro-2β, 3β-dihydro- and 15-nitro-2β,3β,6,7-tetrahydrotabersonine derivatives, pharmaceutical compositions containing them and process for preparing same” (Richter Gedeon Vegyeszeti Gyar RT., priority 1990, dated 1993).

What was measured:
Asphyxial anoxia = test: Antihypoxic effect on mice (asphyxial anoxia); format: in vivo, male mice (CFLP LATI); conditions: for ED50: Mus musculus, po, 1 hour before, protected = survival 30 % longer than control
Experimental: The antianoxic action of the target compounds was studied by using the following test method.
ANTIHYPOXIC EFFECT ON MICE
Male mice (CFLP LATI) weighing 24 to 26 g were used in these experiments. The test compounds were orally administered in a volume of 10 ml/kg one hour before starting the experiment.
The animals were orally treated with various doses of the test compounds after starving for 16 hours. One hour following the treatment the animals were placed in air-tight glass cylinders of 100 ml volume and the survival time of the animals was measured. Each group consisted of 10 animals. Animals, surviving longer by 30 % than the average survival time of the control group treated with placebo, were considered to be protected. The ED50 value (the dose effective in 50 % of the animals) was calculated from the percentage of surviving animals by using probit analysis.

[1] = test system: TET-induced increase in the brain water content; test: TET-induced cerebral edema in rats (brain water content, protective effect); format: in vivo, inbred male Hannover Wistar rats; conditions: for Brain water content % ± S.E.M. / Protective effect %: 5 days TET 2.5 mg/kg; for protective action against TET-induced edema (in words): result in words
Source text: The inhibitory effect on the cerebral edema of the compounds of formula (I) was studied by using the method of P. Linnee et al. "L'oedeme cerebral induit chez 1e rat par le triethyletain. Interet et limites comme methode d'etude de antioedemateux cerebraux", Ann. Pharmaceutiques francaises, 42, 431 (1984)) as described hereinafter in detail.
Inbred male Hannover Wistar rats weighing 180 to 200 g were used in these examinations. Before starting and during the treatment the animals were kept on normal laboratory diet and received tap water ad libitum.
The cerebral edema was induced by the daily administration of 2.5 mg/kg of triethyl-tin chloride (abbreviated hereinafter as TET) for 5 days. TET (Merck-Schuchardt, Darmstadt, Germany) was dissolved in distilled water under stirring and the stirring was continued during the treatment, too. TET was orally administered to the animals every day at 7 o'clock a.m.
Both the reference drugs and test compounds were homogenized in a 0.5 % carboxymethylcellulose solution by using an Ultra Turrax mixer and stirring was continued also during the administration. The first dose of the reference and test compounds, respectively, was orally 5 given following the TET treatment by 1 or 6 hours, respectively. The administration was always carried out in a volume of 0.5 ml/100 g of body-weight. Each group consisted of 7 animals; the control group received only the solvent of TET (distilled water) and the vehicle used for the compounds (0.5% carboxymethylcellulose solution) in an identical volume and at the same time as described above.
The animals were decapitated on the 5th day of the treatment at 2 hours after the last treatment (with the test compound). The whole brain was rapidly removed, washed with cold 0.9 % saline, the moisture was removed by a filter paper, the brains were placed on aluminum foils previously weighed and the wet weights of the brains (together with the aluminum foil of known weight) were determined with an accuracy of one tenth mg on an electric balance (Precisa 80/A, PAG Oerlikon AG, Zurich, Switzerland).
Subsequently the brains were dried at 90° C. for 92 hours, then the gross dry weight (dry weight of the brain together with the weight of the aluminum foil) was again measured. With the knowledge of the dry and wet weights, the brain water content, i.e. the effect of treatment by the compound was calculated and expressed in the percentage of the protective effect by using the following formula: [formula] wherein (TET-Ko) means the percentage of average brain water content of the animals treated with TET and vehicle;
(TET-V) means the percentage of average brain water content of the animals treated with TET and the compound; and
(Veh-Ko) means the percentage of average brain water content of the animals treated with distilled water and vehicle.
The deviations of changes in the brain water content (and dry weight) were analyzed by the means of Student's "t" trial.

CC[C@]12CCCN3CC[C@]4(C(=C(C(=O)OC)C1)Nc1ccc([N+](=O)[O-])cc14)[C@@H]32 [compound 1700374, 15-nitro-6,7-dihydrotabersonine]
ED50 (Asphyxial anoxia): > 100 mg/kg | protection against cerebral hypoxia (in words) (Asphyxial anoxia; result in words, up to 100 mg/kg p.o.): did not provide any protection

CC[C@]12C=CCN3CC[C@@]4(c5cc([N+](=O)[O-])ccc5N[C@H]4[C@@H](C(=O)OC)C1)[C@@H]32 [compound 1703594, methyl-15-nitro-6,7-didehydro-(2β, 5α, 12β, 19α)-aspidospermidine-(15-nitro-2β, 3β-dihydrotabersonine)]
Brain water content % ± S.E.M. ([1]; Experiment 4, 50 μmol/kg oral): 78.61% | Protective effect % ([1]; Experiment 4, 50 μmol/kg oral): 82.9% | ED50 (Asphyxial anoxia): 56.3 mg/kg

CC[C@]12CCCN3CC[C@@]4(c5cc([N+](=O)[O-])ccc5N[C@H]4[C@@H](C(=O)OC)C1)[C@@H]32 [compound 1704369, methyl 15-nitro-(2β, 5α, 12β, 19α)-aspidospermidine-3α-carboxylate]
protection against the edema-inducing effect of TET ([1]; 100 μmol/kg oral, summary of experiments in text): 100% | Brain water content % ± S.E.M. ([1]; Experiment 1, 100 μmol/kg oral): 78.09 ± 0.09% | Protective effect % ([1]; Experiment 1, 100 μmol/kg oral): 103.6% | Brain water content % ± S.E.M. ([1]; Experiment 2, 100 μmol/kg oral): 78.15 ± 0.05% | Protective effect % ([1]; Experiment 2, 100 μmol/kg oral): 99.3% | Brain water content % ± S.E.M. ([1]; Experiment 4, 50 μmol/kg oral): 78.30% | Protective effect % ([1]; Experiment 4, 50 μmol/kg oral): 105.9% | protective action against TET-induced edema (in words) [1]: even more effective than the structurally similar vincamine

CCOC(=O)[C@H]1C[C@]2(CC)CCCN3CC[C@@]4(c5cc([N+](=O)[O-])ccc5N[C@@H]14)[C@@H]32 [compound 1708009, ethyl 15-nitro-(2β, 5α, 12β, 19α)-aspidospermidine-3α-carboxylate]
Brain water content % ± S.E.M. ([1]; Experiment 3, 50 μmol/kg oral): 79.44 ± 0.11% | Protective effect % ([1]; Experiment 3, 50 μmol/kg oral): 32.5% | protective action against TET-induced edema (in words) [1]: similarly effective | ED50 (Asphyxial anoxia): 62 mg/kg

COC1=C(OC)C(=O)C(CCCCCCCCCCO)=C(C)C1=O [idebenone, 5,6-dimethoxy-2-(10-hydroxydecyl)-3-methyl-p-benzoquinone]
Brain water content % ± S.E.M. ([1]; Experiment 3, 100 μmol/kg oral): 79.75 ± 0.14% | Protective effect % ([1]; Experiment 3, 100 μmol/kg oral): 14.0% | Brain water content % ± S.E.M. ([1]; Experiment 6, 100 μmol/kg oral): 80.22 ± 0.16% | Protective effect % ([1]; Experiment 6, 100 μmol/kg oral): 16.9% | protective action against TET-induced edema (in words) [1]: did not produce any practically useful protective action

NC(=O)CN1CCCC1=O [piracetam, 2-oxo-1-pyrrolidineacetic acid amide]
Brain water content % ± S.E.M. ([1]; Experiment 5, 100 μmol/kg oral): 80.04 ± 0.28%

CC[C@]12CCCN3CCc4c(n(c5ccccc45)[C@@](O)(C(=O)OC)C1)[C@@H]32 [vincamine, (+) -14β-hydroxy-14α-methoxycarbonyl-14, 15- -dihydroeburnamenine]
Brain water content % ± S.E.M. ([1]; Experiment 1, 100 μmol/kg oral): 78.83 ± 0.15% | Protective effect % ([1]; Experiment 1, 100 μmol/kg oral): 64.9% | Brain water content % ± S.E.M. ([1]; Experiment 2, 100 μmol/kg oral): 78.70 ± 0.13% | Protective effect % ([1]; Experiment 2, 100 μmol/kg oral): 59.6% | Brain water content % ± S.E.M. ([1]; Experiment 4, 50 μmol/kg oral): 79.31% | Protective effect % ([1]; Experiment 4, 50 μmol/kg oral): 31.6%

(5'α, 10α)-9, 10-dihydro-12'-hydroxy- 2'-methylethyl)-5'-benzylergotamine-3+, 6', 18-trione monomethanesulfonate [hydergine]
Brain water content % ± S.E.M. ([1]; Experiment 6, 30 mg/kg oral): 79.97 ± 0.38% | Protective effect % ([1]; Experiment 6, 30 mg/kg oral): 25.6% | protective action against TET-induced edema (in words) [1]: did not produce any practically useful protective action
